Laboratory results: publication PMC3448056, “2-Benzamido-N-(1H-benzo[d]imidazol-2-yl)thiazole-4-carboxamide derivatives as potent inhibitors of CK1δ/ε” (Amino Acids, 2012)
“And” between values parts separate entries of the source, which are not always exact repeats. Equal entries are not always repeated. Where two headings read alike, the source gives them in different places.

Experiments:
human CK1ε = target: T1, human CK1ε (Homo sapiens, UniProt P49674); test: In vitro kinase assay, CK1ε; assay type: biochemical; settings: for inhibition of CK1ε in initial screen: inhibitor 10 μM, 10 μM ATP (Fig. 1b)
T1 construct: purchased Invitrogen, Karlsruhe, Germany
T1 sequence (P49674 whole entry): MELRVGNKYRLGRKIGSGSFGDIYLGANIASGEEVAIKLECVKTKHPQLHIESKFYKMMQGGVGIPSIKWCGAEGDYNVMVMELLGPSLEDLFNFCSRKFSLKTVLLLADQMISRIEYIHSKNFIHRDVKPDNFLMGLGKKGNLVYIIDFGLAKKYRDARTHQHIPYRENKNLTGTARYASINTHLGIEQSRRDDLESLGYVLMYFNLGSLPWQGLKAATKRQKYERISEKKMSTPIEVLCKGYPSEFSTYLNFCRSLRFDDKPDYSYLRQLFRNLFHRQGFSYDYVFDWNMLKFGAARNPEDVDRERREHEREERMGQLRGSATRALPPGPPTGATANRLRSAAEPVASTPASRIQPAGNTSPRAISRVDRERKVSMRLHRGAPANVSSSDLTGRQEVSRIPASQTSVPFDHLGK

GST-mouse CK1δTV1 = target: T2, GST-mouse CK1δTV1 (Mus musculus, UniProt Q9DC28); test: In vitro kinase assay, GST-mouse CK1δTV1; assay type: biochemical
T2 construct: made in house; host or cells: bacteria (pGEX-2T)
T2 sequence (Q9DC28 whole entry): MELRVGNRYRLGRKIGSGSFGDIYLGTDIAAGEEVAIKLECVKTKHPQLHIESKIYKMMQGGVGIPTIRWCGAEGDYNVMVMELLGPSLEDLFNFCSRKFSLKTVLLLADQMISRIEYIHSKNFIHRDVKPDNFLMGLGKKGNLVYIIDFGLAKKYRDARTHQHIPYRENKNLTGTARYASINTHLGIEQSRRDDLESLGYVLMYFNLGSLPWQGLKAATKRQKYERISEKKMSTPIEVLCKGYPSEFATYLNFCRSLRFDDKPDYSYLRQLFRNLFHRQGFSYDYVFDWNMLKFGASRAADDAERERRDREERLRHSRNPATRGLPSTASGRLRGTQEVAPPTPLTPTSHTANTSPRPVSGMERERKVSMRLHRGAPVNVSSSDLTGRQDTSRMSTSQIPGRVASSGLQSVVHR
From the text: CK1δTV1 and 2 (transcription variants 1 and 2) were PCR amplified from mouse cDNA (5′-primer TV1 and 2: 5′-[…]-3′, 3′-primer TV1: 5′-[…]-3′, 3′-primer TV2: 5′-[…]-3′) and cloned into pcDNA3.1/V5-His© TOPO® TA cloning vector (Invitrogen, Karlsruhe, Germany) before being subcloned into pGEX-2T expression vector via BamHI to generate plasmids pGEX-2T-mouse CK1δTV1 (FP1170) and pGEX-2T-mouse CK1δTV2 (FP1171).
(§1) Expression and purification of the GST-fusion proteins GST-mouse p53^1–64 (FP267), GST-rat CK1δ (FP449), GST-rat CK1δ^M82F (FP1153), GST-mouse CK1δTV1 (FP1170), and GST-mouse CK1δTV2 (FP1171) was carried out as described elsewhere (Wolff et al. [2005]). Expression of fusion proteins FP1170 and 1171 was either performed at 37°C for 2 h, or at 15°C for 14 h. FP449 and FP1153 were always expressed at 15°C for 14 h.
(§2) In vitro kinase assays were carried out in the presence of various potential inhibitors of CK1δ at an ATP concentration of 0.01 mM and dimethyl sulfoxide (DMSO) solvent control as described previously (Knippschild et al. [1996]). Where indicated higher ATP concentrations (0.05, 0.1, 0.25 and 0.5 mM) were used. The fusion protein GST-mouse p53^1−64 (FP267) was used as substrate. Recombinant CK1δ kinase domain (CK1δkd, NEB, Frankfurt am Main, Germany), GST-rat CK1δ (FP449), GST-rat CK1δ^M82F (FP1153), GST-mouse CK1δTV1, GST-mouse CK1δTV2 and recombinant human CK1ε (Invitrogen, Karlsruhe, Germany) were used as sources of enzyme. Phosphorylated proteins were separated by SDS-PAGE and the protein bands were visualized on dried gels by autoradiography. The phosphorylated protein bands were excised and quantified by Cherenkov counting.

GST-rat CK1δ^M82F = target: T3, GST-rat CK1δ^M82F (Rattus norvegicus, UniProt Q06486, M82F); test: In vitro kinase assay, gatekeeper mutant; assay type: biochemical; settings: inhibitor at its determined IC50 concentration (Fig. 7)
T3 construct: made in house; host or cells: bacteria (pGEX-2T)
T3 sequence (Q06486 1-415 M82F): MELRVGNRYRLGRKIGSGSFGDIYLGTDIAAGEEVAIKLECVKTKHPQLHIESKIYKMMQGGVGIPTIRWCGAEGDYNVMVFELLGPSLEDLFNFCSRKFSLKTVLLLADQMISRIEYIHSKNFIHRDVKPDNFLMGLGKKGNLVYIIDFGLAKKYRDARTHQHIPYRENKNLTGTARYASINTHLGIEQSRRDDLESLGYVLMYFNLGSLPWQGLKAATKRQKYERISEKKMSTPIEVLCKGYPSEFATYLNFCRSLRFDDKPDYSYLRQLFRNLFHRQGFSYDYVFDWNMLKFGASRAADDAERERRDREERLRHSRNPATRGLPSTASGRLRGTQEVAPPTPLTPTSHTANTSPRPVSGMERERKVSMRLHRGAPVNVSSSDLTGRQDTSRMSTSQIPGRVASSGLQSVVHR
Description: For the expression of wt rat CK1δ and rat CK1δ^M82F as glutathione S-transferase fusion proteins the plasmids pGEX-2T-CK1δ (FP449) (Knippschild et al. [1997]) and pGEX-2T-CK1δ^M82F (FP1153) (Peifer et al. [2009]) were used.
as §1, §2
Previously it has been shown that methionine 82 plays an important role as gatekeeper residue in the docking mode of isoxazoles to the ATP binding pocket since mutation of methionine 82 to phenylalanine blocks binding of this class of CK1δ specific inhibitors (Peifer et al. [2009]) while still binding ATP. Therefore, we now analyzed the effects of exchanging methionine 82 to phenylalanine on the ability of compounds 4, 5 and 6 to inhibit CK1δ activity.

Frwt648 cells = test: Flow cytometry cell cycle analysis; assay type: cell-based; settings: Frwt648, 2 and 4 μM, 48 h; range stated jointly for Frwt648 and mKSA and compounds 5 and 6
Description: Frwt648 cells [generated by SV40-transformation of F111 cells; (Hinzpeter and Deppert [1987])] and mKSA cells [SV40-transformed Balb/c fibroblasts; (Kit et al. [1969])] were grown in Dulbecco’s modified Eagle’s medium (DMEM) supplemented with 5% fetal calf serum (FCS; Biochrom, Berlin, Germany). The fibrosarcoma cell line HT1080 (Rasheed et al. [1974]) was grown in DMEM containing 10% FCS and 2 mM glutamine while both the prostate cancer cell line DU-145 (Stone et al. [1978]) and the ovary tissue cancer cell line OVCAR-3 (Hamilton et al. [1983]) were maintained in RPMI-1640 supplemented with 10% FCS. The pancreatic cancer cell line Colo357 (Morgan et al. [1980]) was grown in DMEM/RPMI (1:1) and the colon adenocarcinoma cell line SW480 (Leibovitz et al. [1976]) in Leibovitz L-15 medium, both containing 10% FCS and 2 mM glutamine. All media were supplemented with 100 U/ml penicillin and 100 μg/ml streptomycin (Gibco, Karlsruhe, Germany) and all cell lines were grown at 37°C in a humidified 5% carbon dioxide atmosphere.
Subconfluent Frwt648, mKSA, Colo357, OVCAR-3, HT1080, DU-145 and SW480 cells were treated with 2 or 4 μM of compounds 5 or 6 for 48 h. Untreated and DMSO treated cells served as control. Cells were harvested, washed once with phosphate-buffered saline (PBS), and prepared for cell cycle analysis using the “Cycle Test Plus Kit” (BD, San Jose, USA). […]

[1] = 0.01 mM ATP, substrate GST-mouse p53^1-64, mean ± SD, read-out: IC50 (μM) GST-CK1δ TV1

| SMILES | inhibition of CK1ε in initial screen (human CK1ε) | IC50 (GST-mouse CK1δTV1; [1]) | IC50 (GST-mouse CK1δTV1; IC50 CK1δTV1, 2 h, enzyme induced for 2 h at 37°C) | IC50 (GST-mouse CK1δTV1; enzyme induced for 14 h at 15°C, read-out: IC50 CK1δTV1, 14 h) | kinase activity of GST-CK1δ^M82F in comparison with inhibition of GST-wt CK1δ (GST-rat CK1δ^M82F) | dead cells (Frwt648 cells) | IC50 (human CK1ε; 0.01 mM ATP, substrate GST-mouse p53^1-64, mean ± SD) |
| --- | --- | --- | --- | --- | --- | --- | --- |
| O=C(Nc1nc2ccc(C(F)(F)F)cc2[nH]1)c1csc(NC(=O)c2ccccc2OC(F)(F)F)n1 [Compound 5, 2-(2-(Trifluoromethoxy)benzamido)-N-(6-(trifluoromethyl)-1H-benzo[d]imidazol-2-yl)thiazole-4-carboxamide] | significant inhibition | 0.022 ± 0.02 µM | 0.066 µM | 0.023 µM | much more affected | 35–98% | – |
| O=C(Nc1nc2cc(Cl)c(F)cc2[nH]1)c1csc(NC(=O)c2ccccc2OC(F)(F)F)n1 [Compound 6, N-(5-Chloro-6-fluoro-1H-benzo[d]imidazol-2-yl)-2-(2-(trifluoromethoxy)benzamido)thiazole-4-carboxamide] | significant inhibition | 0.048 ± 0.02 µM | – | – | similarly or even less affected | 35–98% | 0.0326 µM and 0.033 µM |
